From patent US12661353B2, “SPT5 inhibitors and uses thereof” (Yeda Research and Development Co. Ltd., priority 2020, dated 2026) come the findings set out here.

For experiment [1], the target named is T1, Rpb1 CC domain (His-Rpb1) (Homo sapiens, UniProt P24928).
T1 construct: His tag; made in house; host or cells: E. coli; purified on nickel agarose beads
Put plainly: Binding assay by intrinsic fluorescence of purified His-Rpb1. The settings on record: read-out: IC50, decrease of intrinsic fluorescence of Rpb1 (Pol II). The method, then: Binding assay—In order to measure binding of the indicated compound to Spt5 and/or Pol II; Spt5-Spt4 or Rpb1 fused to a histidine (His) tag were expressed in E. coli (SEQ ID Nos: 2-3, 5-6 and 81) and purified on nickel agarose beads as described in Ashkenazi et al. 2016. The proteins were incubated for 10 minutes with increasing concentrations of the indicated compound in a black 384 wells microplate in a total volume of 20 μl. Binding was assessed by measuring the changes in the intrinsic fluorescence (280 nm) using Cytation™ 5 (BioTek).
Two identified compounds, SPI-21 and SPI-18, were further validated for their direct interaction with either Spt5 or Rpb1 CC domain. […] Using the purified proteins, fluorescence intensity measurements were performed in the presence of increasing concentrations of SPI-21 or SPI-18. This method analyzes binding by monitoring the changes in the intrinsic fluorescence of the proteins as a consequence of conformational changes. […]
Direct interaction with either the Spt5 or the Rpb1 CC domain of SPI-21 and SPI-18 was further validated. […] Using the purified proteins, fluorescence intensity measurements were performed in the presence of increasing concentrations of SPI-21 and SPI-18. This method analyzes binding by monitoring the changes in the intrinsic fluorescence of the proteins as a consequence of conformational changes. […]

Experiment [2] has as its target T2, endogenous Spt4/Spt5-Pol II complex (Homo sapiens, UniProt O00267+P24928).
T2 construct: endogenous in cells; host or cells: HeLa cell lysate, immunoprecipitated with anti-Spt5 antibody
In words: Co-immunoprecipitation of endogenous Spt4/Spt5-Pol II complex, HeLa lysates. In kind it is binding. Conditions: 50 μM. The method, then:
Co-immunoprecipitation (CO-IP)—HeLa cells were detached from a 10 cm dish with ice-cold PBS and a cell scraper, centrifuged for 5 minutes at 2,000 rpm and re-suspended in 200 μl lysis buffer (20 mM Tris-HCl pH 8, 400 mM NaCl, 2 mM EDTA, 0.5% NP-40, 10% glycerol) to which a protease inhibitor cocktail (1:100) and PMSF (200 μM) were freshly added. The lysates were rotated for 10 minutes at 4° C.; and centrifuged for 15 minutes at 13,000 rpm. Following, the supernatants were diluted with lysis buffer without NaCl to reach a final concentration of 100 mM NaCl. Cell lysates were then incubated at 4° C. overnight with an anti-Spt5 antibody (Tadashi Wada et al., 1998 Genes and Development. PMID: 9450929) or rabbit IgG (SC-2025, Santa Cruz Biotechnology), followed by 2 hours incubation at 4° C. with Protein A/G Sepharose beads (GE Healthcare). Following, the samples were washed 3 times and incubated for 2 hours at 4° C. with DMSO (vehicle control) or the indicated compound. The immune-precipitated proteins were detected by SDS-PAGE followed by western blot using an anti-Spt5, anti-Pol II (ab817, Abcam) or anti-Spt4 (Kim D K. et al, Genes to cells 2003 PMID: 12653964).
In the next step, co-immunoprecipitation in the presence of SPI-21 or SPI-18 was performed to test their effect of endogenous Spt4/Spt5-Pol II complex. […]

A further experiment has as its system mutant (Q111) Htt. Put plainly: Htt mRNA levels in Q111 striatal cells, qPCR. Also: key: + represent a statistically significant effect. In kind it is cell-based, mouse. Conditions: Q111 striatal cells, 48 hours. The procedure:
Cell culture—HEK293T, HeLa, MCF7, Jurkat and mouse embryonic fibroblasts (MEFs) cells were grown and maintained in Dulbecco's modified Eagle's medium supplemented with 10% fetal calf serum (Gibco) and 1% penicillin-streptomycin. To avoid NF-κB activity, HeLa cells were kept from reaching confluence and re-plated no more than 10 times following initial thawing. To induce NF-κB activity, cells were treated with […] recombinant human TNF-α (Peprotech) for the indicated times. STHdh Q111 and STHdh Q7 striatal cell lines (Coriell Institute for Medical Research) were grown in Dulbecco's modified Eagle's medium supplemented with 10% fetal calf serum (Gibco), 1% penicillin-streptomycin and 0.4 mg/ml G418 at 33° C. The cells were re-plated no more than 5-6 times, as recommended.
Huntington's disease (HD) is an inherited genetic disorder caused by expansion trinucleotide CAG repeats (36 and higher) encoding glutamine (Q) in the huntingtin (Htt) gene. Expression of the mutant gene in neurons of the striatum and the frontal cortex leads to degeneration of neuronal cells that control body movements, emotions and intellect. […] To examine the potential effect of SPIs in this context, striatal cell lines established from wild type (Q7) or from mutant (Q111) Htt knock-in mice were used. In these cell lines the coding region of the first exon of the mouse Htt gene was replaced with the same region of human wild type (Q7) or mutant (Q111) Htt, as schematically shown in FIG. 6A. The two cell lines were treated for 48 hours with the identified SPIs and following the levels of Htt mRNA were determined.
The compounds were tested as described in Example 4 hereinabove. In brief, Q111 (or Q7, where indicated) expressing Striatal cells were treated with the tested compound at the indicated concentrations for 48 hours. Then, RNA was extracted and levels of Htt mRNA were determined by qRT-PCR and normalized to β-actin. The data was analysed using GraphPad Prism software.
(In general: In qPCR the cycle at which signal appears reflects the starting amount.)

With `Nc1ccccc1SC(CC(=O)c1cccs1)c1cccs1` (stereo not drawn) [SPI-18], in experiment [1], the 50% inhibitory concentration (IC50) (in general, the concentration that inhibits the measured activity by half) turned out to be 76 µM. Further, in experiment [2], the “effect on Spt5-Pol II binding (co-immunoprecipitation)” value is on record as “did not disrupt Spt5-Pol II binding”. In addition, the “Down-regulating transcription of Mutant Htt (i.e. inhibiting transcription elongation of mutant Htt gene induced by Spt5)” value in the experiment on mutant (Q111) Htt was “+”.

With `COc1ccc(C=CC(=O)c2cc(O)ccc2O)cc1` [SPI-21], the IC50 in experiment [1] amounted to 23 µM. In addition, in experiment [2], the “effect on Spt5-Pol II binding (co-immunoprecipitation)” value is reported as “did not disrupt Spt5-Pol II binding”. Further, in the experiment on mutant (Q111) Htt, the “Down-regulating transcription of Mutant Htt (i.e. inhibiting transcription elongation of mutant Htt gene induced by Spt5)” value was “+”.
